Measurements as given in US10640802B2 (priority 2012, dated 2020).
pEC50: −log10 of the molar value. Entries after “also recorded” stand apart in the source; their conditions may differ. Like-named read-outs stand apart in the source and are kept apart here.

Columns and labels:
[1] = biological target: Acidithiobacillus ferrooxidans AfArsR repressor, wild type (Acidithiobacillus ferrooxidans, UniProt B7J952); type: biochemical; details: pH 7.5
[2] = biological target: T1, Acidithiobacillus ferrooxidans AfArsR variant C102S (Cys102 to serine) (Acidithiobacillus ferrooxidans, UniProt B7J952, C102S); type: biochemical
T1 sequence (B7J952 1-118 C102S): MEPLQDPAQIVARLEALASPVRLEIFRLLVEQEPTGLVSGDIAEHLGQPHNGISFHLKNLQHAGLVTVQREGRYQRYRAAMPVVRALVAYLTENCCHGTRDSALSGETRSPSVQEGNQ

[3] = system: Acidithiobacillus ferrooxidans AfArsR, wild type (pBADarsR / pACYC184-parsO-gfp biosensor in E. coli AW3110); type: cell-based
[4] = system: Acidithiobacillus ferrooxidans AfArsR variant C102S (Cys102 eliminated by mutation; pBADarsR / parsO-gfp biosensor in E. coli AW3110); type: cell-based
[5] = system: E. coli AW3110 biosensor cells
[6] = biological target: T1, Acidithiobacillus ferrooxidans AfArsR variant C102S (Cys102 to serine); details: previously observed; cited from earlier work
[7] = system: C102S biosensor co-cultured with Burkholderia sp. MR1; type: cell-based, E. coli / Burkholderia sp. MR1
[8] = system: AfarsR-gfp biosensor (E. coli strain AW3110 bearing pBADarsR and pACYC184-parsO-gfp); type: cell-based
[9] = system: C102S mutant biosensor (E. coli strain AW3110); type: cell-based
wild type AfArsR = type: binding, Acidithiobacillus ferrooxidans
AfArsR C102S mutant = type: binding, Acidithiobacillus ferrooxidans
[10] = read-out: apparent half maximal concentration required for induction

Acidithiobacillus ferrooxidans AfArsR repressor, wild type, sequence (B7J952 1-118): as the sequence (B7J952 1-118 C102S) above, with S102C counted along it

With `O[As](O)O` [As(III), arsenite] as the molecule, how does the pEC50 ([1]; read-out: concentration required to decrease anisotropy of AfArsR-DNA complex (half-maximal)) read?
Its pEC50 is roughly 5.00.

What about the pEC50 ([1]; read-out: half-maximal concentration decreasing anisotropy of AfArsR-DNA complex) of the same molecule?
Its pEC50 is roughly 5.00.

What about the “binding / recognition by C102S” value [2] of the same molecule?
Its value is “lack of binding; also recorded: no longer recognizes; also recorded: lost its binding ability”.

What about the “response (anisotropy)” value [2] of the same molecule?
Its value is “little response”.

What about the “concentrations sensed by the original biosensor” value [3] of the same molecule?
Its value is “micromolar concentrations”.

And the “induction / derepression of gfp expression” value (from here on “induction / derepression”) [3]?
Its value is “derepressed gfp expression; also recorded: dissociated AfArsR from pars, derepressing gfp expression; also recorded: induced gfp expression”.

And the “linear response around concentration” value [3]?
Its value is roughly 10 ppb.

What about the “response of the biosensor” value [3] of the same molecule?
Its value is “practically no response”.

What about the “induction / derepression” value [4] of the same molecule?
Its value is “not responsive; also recorded: did not respond”.

What about the “response to As(III)” value [4] of the same molecule?
Its value is “no response”.

What about the “decrease in cellular fluorescence and growth” value [5] of the same molecule?
The value was no less than 40 pM.

And the “reduction of affinity by substitution of Cys102 with serine” value [6]?
The value was “nearly an order of magnitude”.

Which “binding / recognition by C102S” value [2] does the source give for `C[As](O)O` [MAs(III), methylarsenite] here?
The value was “still senses; also recorded: same binding affinity”.

What about the “response (anisotropy), concentration range” value [2] of the same molecule?
Its value is “sub-micromolar range”.

What about the “response to MAs(III), Rox(III) and PhAs(III) relative to wild type” value [2] of the same molecule?
The value was “slightly higher than the wild type”.

And the “induction / derepression” value [3]?
The value was “proportional to the concentration of the inducer; also recorded: induced gfp expression”.

What about the pEC50 [3, 10] of the same molecule?
The pEC50 was roughly 5.52.

And the “induction / derepression” value [4]?
Its value is “proportional to the concentration of the inducer; also recorded: high levels of fluorescence”.

And the pEC50 ([4]; read-out: apparent half maximal concentration for induction)?
The pEC50 was roughly 5.52.

And the “toxic at concentrations in excess of” value [5]?
Its value is > 10^−5 M.

For `O=[As](O)(O)c1ccccc1` [PAA, phenylarsonic acid], which “response of biosensor co-cultured with Burkholderia” value [7] is on record?
Its value is “didn't respond”.

Which “biosensor response (gfp derepression)” value [8] does the source give for `O=[N+]([O-])c1cc([As](=O)(O)O)ccc1O` [Rox(V), 3-nitro-4-hydroxybenzenearsonic acid] here?
Its value is “unresponsive”.

And the “biosensor response (gfp derepression)” value [9]?
The value was “unresponsive”.

What about the “response of biosensor co-cultured with Burkholderia” value [7] of the same molecule?
The value was “didn't respond; also recorded: didn't show fluorescent”.

Which “induction of gfp expression” value [8] does the source give for Sb(III) [listing 1 of 2 here] here?
The value was “induced gfp expression”.

Which “induction / derepression” value [3] does the source give for Sb(III) [listing 2 of 2 here] here?
Its value is “induced gfp expression”.

Which “effect on anisotropy of the AfArsR-DNA complex” value (wild type AfArsR) does the source give for arsenate [As(V)] here?
The value was “no effect”.

Which results are given for arsenite [As(III)]?
pEC50 (wild type AfArsR; read-out: half-maximal concentration for decrease of anisotropy): ~5.00; binding by purified AfArsR C102S mutant (AfArsR C102S mutant): lost its binding ability; response of C102S AfArsR (anisotropy) (AfArsR C102S mutant): little response; biosensor response [8]: practically no response; biosensor response (gfp derepression) [8]: induced; concentration around which the response is linear [8]: ~10 ppb; gfp expression upon addition of arsenite [8]: derepressed gfp expression; also recorded: derepressing gfp expression; induction of gfp expression [8]: induced gfp expression; pEC50 [8, 10]: ~5.00; biosensor response (gfp derepression) [9]: did not respond; response of Cys102-lacking biosensor [9]: no response; response of mutant biosensor [9]: no response; response to addition of arsenite [9]: not responsive
